The experiment can be described thus: Reversal of MRP1-mediated doxorubicin-resistance in human HeLa-T5 cells assessed as reduction of doxorubicin IC50 percent by half.

On to `Cc1onc2c1c(=O)n([C@H]1CCC[C@@H](CNC(=O)c3ccccc3)C1)c1cccc(Cl)c21` (racemic) [N-(((1R,3S)-3-(9-chloro-3-methyl-4-oxoisoxazolo[4,3-c]quinolin-5(4H)-yl)cyclohexyl)methyl)benzamide], for which the EC50 (in general, the midpoint of the concentration-response curve) worked out at 93 nM.

(Values after BindingDB's records for doi:10.1021/jm900194w (The Hong Kong Polytechnic University, 2009).)
